{"source": "patent US20120003329A1", "about": "“Use of A2B Adenosine Receptor Antagonists for Treating Pulmonary Hypertension” (Gilead Sciences, Inc., priority 2010, published 2012)", "key": {"HPASMs [1]": {"test_system": "HPASMs", "assay": "Expression of collagen, extracellular matrix proteins and enzymes, real-time RT-PCR array", "assay_type": "cell-based, human", "settings": "NECA 10 μM together with Compound A 100 nM, 1.5 hours", "protocol": "(§1) Gene expression was determined using real-time RT-PCR with Stratagene PCR equipment (La Jolla, Calif.). Zhong H., et al. “A2B adenosine receptors increase cytokine release by bronchial smooth muscle cells, “American Journal of Respiratory Cell and Molecular Biology, 30(1): 118-125 (2004).\nHPASMs were incubated in the presence of NECA (10 μM) or NECA (10 μM) together with Compound A (100 nM) for 1.5 hours. A real-time-RT-PCR array focusing on genes involved in tissue remodeling were conducted on the RNAs isolated from the HPASMs. NECA increased the mRNA expression of ADAMTS1, ADAMTS8, CDH1, MMPI, MMP12, HAS1, ITGA7, COL1A1, COL8A1 and CTGF (FIG. 12A-B)."}, "HPASMs [2]": {"test_system": "HPASMs", "assay": "Smooth muscle cell migration, Boyden chamber with conditional media", "assay_type": "cell-based, human", "settings": "conditional medium from HPASMs, NECA 10 μM and Compound A 100 nM, 18 hours; migration 24 hours", "protocol": "Conditional media were collected from HPASMs treated with vehicle, NECA (10 μM), NECA (10 μM) and Compound A (100 nM), or NECA (10 μM) and an anti-IL-6 antibody (1 ng/mL, purchased from Invitrogen) for 18 hours were added to the lower wells of Boyden chamber assay systems as chemoattractants. HPASMs were allowed to migrate for 24 hours. […] It was also observed that IL-8 neutralizing antibody had no effect on cell migration. […] The released IL-6 in turn enhances smooth muscle cell migration (see FIG. 10B for illustration)."}, "HPAECs [3]": {"test_system": "HPAECs", "assay": "Endothelin-1 release from HPAECs (ELISA)", "assay_type": "cell-based, human", "settings": "NECA 10 μM with Compound A 100 nM, 18 hr", "protocol": "(§2) HPASM were grown in smooth muscle growth medium (SMGM-2). HPAECs were grown in endothelium growth medium (EGM-2). Before treatment, cells were seeded in 24-well plates and allowed to grow to ˜80% confluency. Cells were washed and then incubated in serum free basal medium in the absence or presence of adenosine receptor agonists and antagonists. In the proliferation assays, HPASM were incubated in 50% medium collected from HPAEC cells treated with vehicle or NECA.\n(§3) IL-6 and G-CSF were measured using human 30-plex luminex kit from Invitrogen (Carlsbad, Calif.). IL-8, endothelin-1, thromboxane B2 were measured using ELISA (kits obtained from Invitrogen, AssayDesigns (Ann Arbor, Mich.), and Caymen Biomedicals (Ann, Arbor, Mich.) respectively).\nHPAECs were incubated in the absence or presence of NECA at various concentrations (0.1 μM, 1 μM, and 10 μM) and Compound A (100 nM) for 18 hours. The amount of ET-1, provided in pg/mL was measured by the ELISA protocol discussed above."}, "HPASMs [4]": {"test_system": "HPASMs", "assay": "Thromboxane B2 release from HPASMs (ELISA)", "assay_type": "cell-based, human", "settings": "NECA 10 μM with Compound A 100 nM, 18 hours", "protocol": "as §2, §3\n(§4) HPASMs were incubated in the absence or presence of NECA at various concentrations (0.1 μM, 1 μM, and 10 μM) and Compound A (100 nM) for 18 hours."}, "HPAECs [5]": {"test_system": "HPAECs", "assay": "Release of IL-8 in endothelial cells (ELISA)", "assay_type": "cell-based, human", "settings": "NECA 10 μM with Compound A 100 nM, 18 hr", "protocol": "as §2, §3\nHPAECs were incubated in basal medium in the absence or presence of NECA (N-ethylcarboxamide adenosine) at various concentrations (0.1 μM, 1 μM, and 10 μM) and Compound A (100 nM) for 18 hours. NECA is a known adenosine agonist of A1 and A2 subtypes. The amount of IL-8, provided in pg/mL, was measured by ELISA."}, "[6]": {"test_system": "Male C57BL6 mice treated with bleomycin (BLM)", "assay": "Bleomycin-induced pulmonary hypertension associated with chronic lung disease in mice", "assay_type": "in vivo", "protocol": "Methods: Male C57BL6 mice were treated with bleomycin (BLM) at 0.035 units per mouse, or vehicle (phosphate buffered saline (PBS)) intra-peritoneally twice weekly for 4 weeks. When pulmonary fibrosis was established, on day 15, mice were provided with special chow containing an A2B receptor antagonist, Compound A (˜10 mg/kg/day dose), for the next 18 days (FIG. 15). In contrast, control groups received normal chow.\nOn day 33, right ventricle systolic pressure (RVSP), systemic blood pressure, heart rate and lung function measurements were performed. Additionally, the lungs were collected for immunohistochemistry (IHC) for α-smooth muscle actin (αSMA).\nStatistical Analysis: All data were analyzed using a 1-way ANOVA with a Newman-Keuls post test. The software used to conduct the statistical analysis was Graph-Pad Prism v5.00 (La Jolla Calif.). In all related figures, significance levels: *P<0.05, **[…]<P<0.01, ***P<0.001 refer to comparisons between PBS and BLM groups; significance levels: #P<0.05, # # 0.001<P<0.01, # # # P<0.001 refer to comparisons between BLM and BLM+Compound A groups. All values in the figures represent mean±SEM (standard error or the mean) for 5-8 mice per group."}, "[7]": {"test_system": "adenosine deaminase (ADA)-deficient mouse model of adenosine-dependent pulmonary injury", "assay": "Vascular wall thickening in the lungs of ADA-deficient mice (H&E staining)", "assay_type": "in vivo", "settings": "1 mg/kg intraperitoneal twice daily for 14 days, lungs at postnatal day 38", "from_the_text": "The model system being used is the adenosine deaminase (ADA)-deficient mouse model of adenosine-dependent pulmonary injury.\nThis example follows the protocol described in Sun C X, et al. “Role of A2B adenosine receptor signaling in adenosine-dependent pulmonary inflammation and injury,” J. Clin. Invest., 116(8):2173-2182 (2006), which is hereby incorporated by reference.\nAll ADA-deficient mice were maintained on ADA enzyme therapy from birth to postnatal day 21 to prevent defects in alveolar development. Banerjee, et al. Am. J. Respir. Cell Mol. Biol. 30-38-50 (2004). ADA enzyme therapy was discontinued at postnatal day 21, and 3 days later the mice were given intraperitoneal injections of 1 mg/kg of Compound A twice daily for 14 days.\nLungs were collected from postnatal day 38 mice and prepared routinely for sectioning and H&E staining Tissues were taken from control (ADA+) mice (FIG. 3A), the ADA-deficient mice (FIG. 3B), and the ADA-deficient mouse treated with Compound A (FIG. 3C). Sections are representative of 6-8 different mice from each treatment group."}, "HPASMs [8]": {"test_system": "HPASMs", "assay": "Effect of NECA-activated HPAECs on proliferation of HPASMs (cell count)", "assay_type": "cell-based, human", "settings": "supernatant of HPAECs treated with NECA 10 μM and Compound A 100 nM for 18 hours; HPASMs 18 hours", "protocol": "as §2\nCell supernatants were collected from HPAECs treated with vehicle (control medium), NECA (10 μM, NECA medium) or NECA and Compound A (100 nM) for 18 hours. These cell supernatants (diluted 1:1 in […] basal medium) with or without ambrisentan (30 nM) were used to incubate HPASMs for 18 hours. Cells were counted. NECA-HPAEC medium increased cell number of HPASMs at 18 hours compared to control-HPAEC medium."}, "HPASMs [9]": {"test_system": "HPASMs", "assay": "Cytokine release from HPASMs (IL-6, IL-8, G-CSF)", "assay_type": "cell-based, human", "settings": "NECA 10 μM with Compound A 100 nM, 18 hr", "protocol": "as §2, §3, §4"}, "HPASMs [10]": {"test_system": "HPASMs", "assay": "NECA-induced expression of NOTCH3 in HPASMs (real-time RT-PCR)", "assay_type": "cell-based, human", "settings": "NECA 10 μM along with Compound A 100 nM, 1.5 hours", "protocol": "as §1\nHPASMs were incubated with NECA (10 μM) or NECA (10 μM) along with Compound A (100 nM) for 1.5 hours. The expression of NOTCH3 was measured by quantitive real-time RT-PCR using the methodologies described above."}, "[11]": {"settings": "mice, Compound A ~10 mg/kg/day in chow day 15 to 33, day 33"}, "[12]": {"settings": "mice, Compound A ~10 mg/kg/day in chow day 15 to 33, α-SMA immunostaining"}, "[13]": {"settings": "mice, Compound A ~10 mg/kg/day in chow, Flexivent"}}, "data": [{"compound": "CCCn1c(=O)c2[nH]c(-c3cnn(Cc4cccc(C(F)(F)F)c4)c3)nc2n(CC)c1=O", "note": "[Compound A, 3-ethyl-1-propyl-8-(1-(3-(trifluoromethyl)benzyl)-1H-pyrazol-4-yl)-1H-purine-2,6(3H,7H)-dione]", "values": [{"measurement": "NECA-induced mRNA expression of ADAMTS1, ADAMTS8, CDH1, MMPI, MMP12, HAS1, ITGA7, COL1A1, COL8A1 and CTGF", "setting": "HPASMs [1]", "value": "reduced"}, {"measurement": "NECA-induced increase in smooth muscle cell migration", "setting": "HPASMs [2]", "value": "inhibited"}, {"measurement": "NECA-induced release of ET-1", "setting": "HPAECs [3]", "value": "markedly reduced"}, {"measurement": "NECA-induced release of thromboxane B2", "setting": "HPASMs [4]", "value": "markedly reduced"}, {"measurement": "NECA-induced release of IL-8", "setting": "HPAECs [5]", "value": "markedly reduced"}, {"measurement": "BLM-decreased arterial oxygenation levels", "setting": "[6]; awake mice, Compound A ~10 mg/kg/day in chow, pulse oximetry", "value": "attenuated"}, {"measurement": "BLM-induced increase of interleukin (IL)-6 level", "setting": "[6]; mice, BALF and plasma, day 33, ELISA, Compound A ~10 mg/kg/day in chow", "value": "significantly attenuated"}, {"measurement": "BLM-induced increase in peri-vascular fibrosis (total collagen levels in the lung)", "setting": "[6]; mice, Compound A ~10 mg/kg/day in chow day 15 to 33, Masson's trichrome", "value": "attenuated"}, {"measurement": "BLM-induced increase in RV hypertrophy", "setting": "[6]; [11]", "value": "attenuated"}, {"measurement": "BLM-induced increase in RVSP", "setting": "[6]; [11]", "value": "attenuated"}, {"measurement": "BLM-induced increase in extent of vascular muscularization", "setting": "[6]; [12]", "value": "attenuated"}, {"measurement": "BLM-induced increase in number of muscularized vessels", "setting": "[6]; [12]", "value": "attenuated"}, {"measurement": "BLM-increased dynamic resistance of the lungs", "setting": "[6]; [13]", "value": "attenuated"}, {"measurement": "BLM-increased quasi-static elastance", "setting": "[6]; [13]", "value": "attenuated"}, {"measurement": "BLM-increased tissue damping", "setting": "[6]; [13]", "value": "attenuated"}, {"measurement": "BLM-induced increase of ET-1", "setting": "[6]; mice, plasma (ELISA) and pulmonary vessel wall, Compound A ~10 mg/kg/day in chow", "value": "significantly attenuated"}, {"measurement": "vascular wall thickening", "setting": "[7]", "value": "drastically reduced"}, {"measurement": "NECA induced proliferation of HPASMs", "setting": "HPASMs [8]", "value": "inhibited"}, {"measurement": "NECA-induced release of G-CSF", "setting": "HPASMs [9]", "value": "markedly reduced"}, {"measurement": "NECA-induced release of IL-6", "setting": "HPASMs [9]", "value": "markedly reduced"}, {"measurement": "NECA-induced release of IL-8", "setting": "HPASMs [9]", "value": "markedly reduced"}, {"measurement": "increase of NOTCH3 expression induced by NECA", "setting": "HPASMs [10]", "value": "inhibited"}]}]}
